The target of experiment [1] is recombinant His-tag Wip1 full length protein (amino acids #1-605) (Homo sapiens (Human), UniProt O15297). As to the kind of experiment: Wip1 full length phosphatase enzyme FDP assay. In kind it is biochemical. The following applies: fluorescein diphosphate (FDP) substrate, RT 2 hours, fluorescence Ex485/Em535.
The target of experiment [2] is recombinant His-tag Wip1(2-420) protein (amino acids #2-420) (Homo sapiens (Human), UniProt O15297). The experiment in a line: Wip1(2-420) phosphatase enzyme FDP assay. In kind it is biochemical. The following applies: fluorescein diphosphate (FDP) substrate, RT 2 hours, fluorescence Ex485/Em535; read-out: WIP1 (Truncated 2-420) FDP Assay: IC50.
recombinant His-tag Wip1(2-420) protein (amino acids #2-420), sequence (O15297 2-420): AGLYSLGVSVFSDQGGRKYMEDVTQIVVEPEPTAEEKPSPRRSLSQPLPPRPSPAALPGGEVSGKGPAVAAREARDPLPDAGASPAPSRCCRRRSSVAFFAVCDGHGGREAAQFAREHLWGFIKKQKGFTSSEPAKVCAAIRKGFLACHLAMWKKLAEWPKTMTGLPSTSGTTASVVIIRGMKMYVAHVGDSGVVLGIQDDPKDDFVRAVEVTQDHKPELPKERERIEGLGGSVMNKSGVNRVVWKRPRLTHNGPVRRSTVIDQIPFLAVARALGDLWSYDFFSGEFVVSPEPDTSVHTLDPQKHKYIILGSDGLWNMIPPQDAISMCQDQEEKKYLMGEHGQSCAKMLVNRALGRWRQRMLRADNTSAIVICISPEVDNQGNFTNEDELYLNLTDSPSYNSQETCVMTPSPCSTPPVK

Molecules are shown by their SMILES.

recombinant His-tag Wip1 full length protein (amino acids #1-605), sequence (O15297 whole entry, the tested form may be a part): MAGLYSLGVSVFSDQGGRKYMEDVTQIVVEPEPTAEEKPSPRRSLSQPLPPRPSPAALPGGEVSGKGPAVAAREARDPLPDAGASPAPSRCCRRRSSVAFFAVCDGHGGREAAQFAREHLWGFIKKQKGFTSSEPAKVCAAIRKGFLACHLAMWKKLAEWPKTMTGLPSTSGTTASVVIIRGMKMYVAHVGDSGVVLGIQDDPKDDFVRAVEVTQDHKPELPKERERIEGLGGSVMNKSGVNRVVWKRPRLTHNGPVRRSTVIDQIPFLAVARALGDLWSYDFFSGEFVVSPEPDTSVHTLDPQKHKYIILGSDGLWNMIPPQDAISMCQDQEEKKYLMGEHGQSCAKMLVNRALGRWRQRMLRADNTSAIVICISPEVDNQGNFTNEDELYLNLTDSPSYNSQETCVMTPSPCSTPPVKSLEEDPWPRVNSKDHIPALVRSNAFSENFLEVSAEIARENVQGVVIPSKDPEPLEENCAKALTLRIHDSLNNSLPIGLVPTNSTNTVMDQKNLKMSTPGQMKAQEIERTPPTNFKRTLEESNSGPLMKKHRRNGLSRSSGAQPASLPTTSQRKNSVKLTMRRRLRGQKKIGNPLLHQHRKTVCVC

One may read the IC50 as the concentration that gives 50% inhibition. With `Cc1ncc(Cl)cc1N[C@@H](C)c1ccc(C(=O)N[C@@H](CC2CCCC2)C(=O)N[C@@H]2C[C@@H]2F)s1` [Compound 30, (2S)-2-({5-[(1S)-1-[(5-chloro-2-methylpyridin-3-yl)amino]ethyl]thiophen-2-yl}formamido)-3-cyclopentyl-N-[(1R,2S)-2-fluorocyclopropyl]propanamide], the half-inhibitory concentration (IC50) in experiment [1] is 10 nM; in experiment [2] it was 6 nM.

`Cc1ncc(Cl)cc1N[C@@H](C)c1ncc(C(=O)N[C@@H](CC2CCCC2)C(=O)NC2CC2)s1` [Compound 279, (2S)-2-({2-[(1S)-1-[(5-chloro-2-methylpyridin-3-yl)amino]ethyl]-1,3-thiazol-5-yl}formamido)-3-cyclopentyl-N-cyclopropylpropanamide]: the IC50 in experiment [1] is 53 nM; in experiment [2] it was 41 nM.

Turning to `COc1ncc(Cl)cc1N[C@@H](C)c1ccc(C(=O)N[C@@H](CC2CCCC2)C(=O)N[C@H]2CC2(F)F)s1` [Compound 49, (2S)-2-({5-[(1S)-1-[(5-chloro-2-methoxypyridin-3-yl)amino]ethyl]thiophen-2-yl}formamido)-3-cyclopentyl-N-[(1S)-2,2-difluorocyclopropyl]propanamide], the IC50 in experiment [1] is 164 nM; in experiment [2], 104 nM.

For `Cc1ncc(Cl)cc1N[C@@H](C)c1ccc(C(=O)N[C@@H](CC2CCCC2)C(=O)N[C@@H]2CC2(F)F)s1` [Compound 24, (2S)-2-({5-[(1S)-1-[(5-chloro-2-methylpyridin-3-yl)amino]ethyl]thiophen-2-yl}formamido)-3-cyclopentyl-N-[(1R)-2,2-difluorocyclopropyl]propanamide], the IC50 in experiment [1] and in experiment [2] was 8 nM each time.

In the case of `Cc1cc(NC(=O)[C@H](CC2CCCC2)NC(=O)c2cnc([C@@H](C)Nc3cccc(Cl)c3)s2)ccn1` [Compound 120, (2S)-2-({2-[(1R)-1-[(3-chlorophenyl)amino]ethyl]-1,3-thiazol-5-yl}formamido)-3-cyclopentyl-N-(2-methylpyridin-4-yl)propanamide], the IC50 in experiment [1] is 11 nM; in experiment [2], 7 nM.

With `Cc1cc(NC(=O)[C@H](CCC(C)C)NC(=O)c2ccc([C@H](C)Nc3cc(Cl)cnc3C)s2)ccn1` [Compound 210, (2S)-2-({5-[(1S)-1-[(5-chloro-2-methylpyridin-3-yl)amino]ethyl]thiophen-2-yl}formamido)-5-methyl-N-(2-methylpyridin-4-yl)hexanamide], the results for the IC50 in experiment [1] and in experiment [2] were 10 nM and 7 nM, respectively.

For the compound `Cc1ncc(Cl)cc1N[C@@H](C)c1ccc(C(=O)N[C@@H](CC2CCCC2)C(=O)N[C@H]2CC2(F)F)s1` [Compound 23, (2S)-2-({5-[(1S)-1-[(5-chloro-2-methylpyridin-3-yl)amino]ethyl]thiophen-2-yl}formamido)-3-cyclopentyl-N-[(1S)-2,2-difluorocyclopropyl]propanamide], the IC50 in experiment [1] came out at 8 nM; in experiment [2], 5 nM.

As to `CC[C@H](Nc1cc(Cl)cnc1C)c1ccc(C(=O)N[C@@H](CC2CCCC2)C(=O)NC2CC2)s1` [Compound 37, (2S)-2-({5-[(1S)-1-[(5-chloro-2-methylpyridin-3-yl)amino]propyl]thiophen-2-yl}formamido)-3-cyclopentyl-N-cyclopropylpropanamide], the values for the half-maximal inhibitory concentration (IC50) in experiment [1] and in experiment [2] were 9 nM and 6 nM, respectively.

Turning to `Cc1ncc(Cl)cc1N[C@H](C)c1ccc(C(=O)N[C@@H](CC2CCCC2)C(=O)N[C@H]2CC2(F)F)s1` [Compound 21, (2S)-2-({5-[(1R)-1-[(5-chloro-2-methylpyridin-3-yl)amino]ethyl]thiophen-2-yl}formamido)-3-cyclopentyl-N-[(1S)-2,2-difluorocyclopropyl]propanamide], the half-inhibitory concentration (IC50) worked out at 139 nM in experiment [1] and 109 nM in experiment [2].

Take `CC(Nc1cccc(Cl)c1)c1ncc(C(=O)N[C@@H](CC2CCCC2)C(=O)NC2CC2)s1` (stereo partly drawn) [Compound 123, (2S)-2-[(2-{1-[(3-chlorophenyl)amino]ethyl}-1,3-thiazol-5-yl)formamido]-3-cyclopentyl-N-cyclopropylpropanamide]: the half-maximal inhibitory concentration (IC50) worked out at 39 nM in experiment [1] and 159 nM in experiment [2].

In the case of `COc1ncc(Cl)cc1N[C@@H](C)c1ccc(C(=O)N[C@@H](CC2CCCC2)C(=O)NC2CC2)s1` [Compound 38, (2S)-2-({5-[(1S)-1-[(5-chloro-2-methoxypyridin-3-yl)amino]ethyl]thiophen-2-yl}formamido)-3-cyclopentyl-N-cyclopropylpropanamide], the half-inhibitory concentration (IC50) in experiment [1] amounted to 9 nM; in experiment [2], 7 nM.

Take `CN(Cc1ccc(C(=O)N[C@@H](CC2CCCCC2)C(=O)NC2CCC(N(C)C)CC2)s1)c1cncc(Cl)c1` (stereo partly drawn) [Compound 298, 5-[[(5-chloro-3-pyridyl)-methyl-amino]methyl]-N-[(1S)-1-(cyclohexylmethyl)-2-[[4-(dimethylamino)cyclohexyl]amino]-2-oxo-ethyl]thiophene-2-carboxamide]: the IC50 worked out at 11 nM in experiment [1] and 31 nM in experiment [2].

On to `CN(Cc1ncc(C(=O)N[C@@H](CC2CCCCC2)C(=O)Nc2ccncc2)s1)c1cncc(Cl)c1` [Compound 301, 2-[[(5-Chloro-3-pyridyl)-methyl-amino]methyl]-N-[(1S)-1-(cyclohexylmethyl)-2-oxo-2-(4-pyridylamino)ethyl]thiazole-5-carboxamide], for which the figures for the IC50 in experiment [1] and in experiment [2] were 23 nM and 42 nM, respectively.

`Cc1ncc(Cl)cc1N[C@@H](Cc1cnn(C)c1)c1ccc(C(=O)N[C@@H](CC2CCCC2)C(=O)NC2CC2)s1` [Compound 171, (2S)-2-({5-[(1S)-1-[(5-chloro-2-methylpyridin-3-yl)amino]-2-(1-methyl-1H-pyrazol-4-yl)ethyl]thiophen-2-yl}formamido)-3-cyclopentyl-N-cyclopropylpropanamide]: the half-maximal inhibitory concentration (IC50) in experiment [1] amounted to 10 nM; in experiment [2] it was 7 nM.

In the case of `Cc1ncc(Cl)cc1N[C@H](C)c1ccc(C(=O)N[C@@H](CC2CCCC2)C(=O)NC2CC2(F)F)s1` (stereo partly drawn) [Compound 15, (2S)-2-({5-[(1R)-1-[(5-chloro-2-methylpyridin-3-yl)amino]ethyl]thiophen-2-yl}formamido)-3-cyclopentyl-N-(2,2-difluorocyclopropyl)propanamide], the results for the IC50 in experiment [1] and in experiment [2] were 71 nM and 80 nM, respectively.

As for `Cc1cc(NC(=O)[C@H](CC2CCCC2)NC(=O)c2ccc([C@H](C)Nc3cc(Cl)cnc3C)s2)cc(C)n1` [Compound 62, (2S)-2-({5-[(1S)-1-[(5-chloro-2-methylpyridin-3-yl)amino]ethyl]thiophen-2-yl}formamido)-3-cyclopentyl-N-(2,6-dimethylpyridin-4-yl)propanamide], the IC50 is 10 nM in experiment [1] and 6 nM in experiment [2].

With `Cc1ncc(Cl)cc1NC(C)c1ccc(C(=O)N[C@@H](CC2CCCC2)C(=O)NC23CC(C2)C3)s1` (stereo partly drawn) [Compound 117], the results for the IC50 in experiment [1] and in experiment [2] were 70 nM and 41 nM, respectively.

As for `Cc1ncc(Cl)cc1N[C@@H](C)c1ccc(C(=O)N[C@@H](CC2CCCC2)C(=O)NC2CC2(F)F)s1` (stereo partly drawn) [Compound 14, (2S)-2-({5-[(1S)-1-[(5-chloro-2-methylpyridin-3-yl)amino]ethyl]thiophen-2-yl}formamido)-3-cyclopentyl-N-(2,2-difluorocyclopropyl)propanamide], the figures for the IC50 in experiment [1] and in experiment [2] were 6 nM and 7 nM, respectively.

Turning to `COc1ncc(Cl)cc1N[C@@H](C)c1ccc(C(=O)N[C@@H](CC2CCCC2)C(=O)NC23CC(C2)C3)s1` [Compound 60, (2S)-N-{bicyclo[1.1.1]pentan-1-yl}-2-({5-[(1S)-1-[(5-chloro-2-methoxypyridin-3-yl)amino]ethyl]thiophen-2-yl}formamido)-3-cyclopentylpropanamide], the IC50 amounted to 7 nM in experiment [1] and 6 nM in experiment [2].

In the case of `CC[C@H](Nc1cc(Cl)cnc1C)c1ccc(C(=O)N[C@@H](CC2CCCC2)C(=O)N[C@@H]2CC2(F)F)s1` [Compound 47, (2S)-2-({5-[(1S)-1-[(5-chloro-2-methylpyridin-3-yl)amino]propyl]thiophen-2-yl}formamido)-3-cyclopentyl-N-[(1R)-2,2-difluorocyclopropyl]propanamide], the 50% inhibitory concentration (IC50) in experiment [1] and in experiment [2] was 11 nM in each case.

For the compound `Cc1ncc(Cl)cc1N[C@@H](C)c1ccc(C(=O)N[C@@H](CC2CCCC2)C(=O)NC2CC(C#N)C2)s1` (stereo partly drawn) [Compound 33, (2S)-2-({5-[(1S)-1-[(5-chloro-2-methylpyridin-3-yl)amino]ethyl]thiophen-2-yl}formamido)-N-(3-cyanocyclobutyl)-3-cyclopentylpropanamide], the 50% inhibitory concentration (IC50) in experiment [1] turned out to be 11 nM; in experiment [2] it was 8 nM.

Consider `O=C(N[C@@H](CC1CCCCC1)C(=O)Nc1ccccn1)c1cnc(CNc2cncc(Cl)c2)s1` [Compound 302, 2-[[(5-chloro-3-pyridyl)amino]methyl]-N-[(1S)-1-(cyclohexylmethyl)-2-oxo-2-(2-pyridylamino)ethyl]thiazole-5-carboxamide], for which the 50% inhibitory concentration (IC50) was found to be 15 nM in experiment [1] and 55 nM in experiment [2].

For the compound `Cc1cc(NC(=O)[C@H](CC2CCCC2)NC(=O)c2cnc([C@H](C)Nc3cccc(Cl)c3)s2)ccn1` [Compound 119, (2S)-2-({2-[(1S)-1-[(3-chlorophenyl)amino]ethyl]-1,3-thiazol-5-yl}formamido)-3-cyclopentyl-N-(2-methylpyridin-4-yl)propanamide], the IC50 in experiment [1] worked out at 115 nM; in experiment [2], 70 nM.

For `Cc1ncc(Cl)cc1N[C@@H](C)c1ccc(C(=O)N[C@@H](CC2CCCC2)C(=O)NC2CC(C)C2)s1` (stereo partly drawn) [Compound 76, (2S)-2-({5-[(1S)-1-[(5-chloro-2-methylpyridin-3-yl)amino]ethyl]thiophen-2-yl}formamido)-3-cyclopentyl-N-(3-methylcyclobutyl)propanamide], the IC50 was found to be 9 nM in experiment [1] and 7 nM in experiment [2].
